In ChEMBL document CHEMBL1136452, “Influence of ethylene-oxy spacer group on the activity of linezolid: synthesis of potent antibacterials possessing a thiocarbonyl group” (2003):
In brackets after ≈: the same amount, converted by molar mass.

Tests used:
Assay type in all cases: functional
Staphylococcus aureus [1] = assay: In vitro antibacterial activity against S. a. 035 (Staphylococcus aureus ATCC 29213)
Staphylococcus aureus [2] = assay: In vitro antibacterial activityd against methicillin-resistant S. a. 019 (Staphylococcus aureus ATCC 33591 )
Enterococcus faecium [3] = assay: In vitro antibacterial activity against vancomycin-resistant Enterococcus faecium 154 (Enterococcus faecium ATCC 12202)
Staphylococcus aureus [4] = assay: In vitro antibacterial activity against S. a. 213 (Staphylococcus. aureus ATCC 49951)
Enterococcus faecalis [5] = assay: In vitro antibacterial activity against vancomycin-susceptible E. f. 034 (Enterococcus faecalis ATCC 29212)
Enterococcus faecalis [6] = assay: In vitro antibacterial activity against vancomycin-susceptible E. f. 153 (Enterococcus faecalis ATCC 29212)
Staphylococcus aureus [7] = assay: In vitro minimum inhibitory concentration of compound against S. a. 035 (Staphylococcus aureus ATCC 29213)
Staphylococcus aureus [8] = assay: In vitro antibacterial activity against methicillin-resistant S. a. 019 (Staphylococcus aureus ATCC 33591 )
Enterococcus faecium [9] = assay: In vitro antibacterial activityd against vancomycin-resistant Enterococcus faecium 154 (Enterococcus faecium ATCC 12202)

SMILES	MIC (Staphylococcus aureus [1])	MIC (Staphylococcus aureus [2])	MIC (Enterococcus faecium [3])	MIC (Staphylococcus aureus [4])	MIC (Enterococcus faecalis [5])	MIC (Enterococcus faecalis [6])	MIC (Staphylococcus aureus [7])	MIC (Staphylococcus aureus [8])	MIC (Enterococcus faecium [9])
CO/C(S)=N/NC[C@H]1CN(c2ccc(OCCN3CCSCC3)c(F)c2)C(=O)O1	4 µg/mL (≈ 9 µM)	1 µg/mL (≈ 2.25 µM)	2 µg/mL (≈ 4.5 µM)	4 µg/mL (≈ 9 µM)	1 µg/mL (≈ 2.25 µM)	2 µg/mL (≈ 4.5 µM)	–	–	–
C/C(S)=N/NC[C@H]1CN(c2ccc(OCCN3CCOCC3)c(F)c2)C(=O)O1	–	–	2 µg/mL (≈ 4.85 µM)	2 µg/mL (≈ 4.85 µM)	2 µg/mL (≈ 4.85 µM)	2 µg/mL (≈ 4.85 µM)	2 µg/mL (≈ 4.85 µM)	1 µg/mL (≈ 2.42 µM)	–
CC(=O)NNC[C@H]1CN(c2ccc(OCCO)c(F)c2)C(=O)O1	8 µg/mL (≈ 24.4 µM)	8 µg/mL (≈ 24.4 µM)	–	–	16 µg/mL (≈ 48.9 µM)	16 µg/mL (≈ 48.9 µM)	–	–	16 µg/mL (≈ 48.9 µM)
C/C(S)=N/NC[C@H]1CN(c2ccc(OCCN3CCCCC3)c(F)c2)C(=O)O1	8 µg/mL (≈ 19.5 µM)	–	4 µg/mL (≈ 9.74 µM)	8 µg/mL (≈ 19.5 µM)	8 µg/mL (≈ 19.5 µM)	4 µg/mL (≈ 9.74 µM)	–	2 µg/mL (≈ 4.87 µM)	–
CC(=O)NNC[C@H]1CN(c2ccc(OCCN3CCOCC3)cc2)C(=O)O1	> 32 µg/mL	–	> 32 µg/mL	–	> 32 µg/mL	> 32 µg/mL	–	> 32 µg/mL	–
CC(=O)NNC[C@H]1CN(c2ccc(OCCN3CCOCC3)c(F)c2)C(=O)O1	16 µg/mL (≈ 40.4 µM)	–	4 µg/mL (≈ 10.1 µM)	16 µg/mL (≈ 40.4 µM)	16 µg/mL (≈ 40.4 µM)	16 µg/mL (≈ 40.4 µM)	–	4 µg/mL (≈ 10.1 µM)	–
CC(=O)NNC[C@H]1CN(c2ccc(OCCN3CCCC3)cc2)C(=O)O1	> 32 µg/mL	–	> 32 µg/mL	–	> 32 µg/mL	> 32 µg/mL	–	32 µg/mL (≈ 88.3 µM)	–
CC(=O)NNC[C@H]1CN(c2ccc(OCCOCc3ccccc3)c(F)c2)C(=O)O1	16 µg/mL (≈ 38.3 µM)	–	–	–	32 µg/mL (≈ 76.7 µM)	32 µg/mL (≈ 76.7 µM)	–	8 µg/mL (≈ 19.2 µM)	32 µg/mL (≈ 76.7 µM)
CC(=O)NC[C@H]1CN(c2ccc(N3CCOCC3)c(F)c2)C(=O)O1 [LINEZOLID]	–	–	2 µg/mL (≈ 5.93 µM)	–	–	–	–	1 µg/mL (≈ 2.96 µM)	–
CC(=O)NNC[C@H]1CN(c2ccc(OCCN3CCCCC3)cc2)C(=O)O1	> 32 µg/mL	–	> 32 µg/mL	–	> 32 µg/mL	> 32 µg/mL	–	> 32 µg/mL	–
CC(=O)NNC[C@H]1CN(c2ccc(OCCN3CCSCC3)c(F)c2)C(=O)O1	16 µg/mL (≈ 38.8 µM)	–	4 µg/mL (≈ 9.7 µM)	16 µg/mL (≈ 38.8 µM)	16 µg/mL (≈ 38.8 µM)	16 µg/mL (≈ 38.8 µM)	–	4 µg/mL (≈ 9.7 µM)	–
C/C(S)=N/NC[C@H]1CN(c2ccc(OCCN3CCSCC3)c(F)c2)C(=O)O1	2 µg/mL (≈ 4.67 µM)	–	2 µg/mL (≈ 4.67 µM)	2 µg/mL (≈ 4.67 µM)	1 µg/mL (≈ 2.33 µM)	2 µg/mL (≈ 4.67 µM)	–	0.5 µg/mL (≈ 1.17 µM)	–
CC(=O)NNC[C@H]1CN(c2ccc(OCCN3CCCCC3)c(F)c2)C(=O)O1	64 µg/mL (≈ 162 µM)	–	64 µg/mL (≈ 162 µM)	64 µg/mL (≈ 162 µM)	64 µg/mL (≈ 162 µM)	64 µg/mL (≈ 162 µM)	–	32 µg/mL (≈ 81.1 µM)	–
CN[C@H](CC(C)C)C(=O)N[C@H]1C(=O)N[C@@H](CC(N)=O)C(=O)N[C@H]2C(=O)N[C@H]3C(=O)N[C@H](C(=O)N[C@H](C(=O)O)c4cc(O)cc(O)c4-c4cc3ccc4O)[C@H](O)c3ccc(c(Cl)c3)Oc3cc2cc(c3O[C@@H]2O[C@H](CO)[C@@H](O)[C@H](O)[C@H]2O[C@H]2C[C@](C)(N)[C@H](O)[C@H](C)O2)Oc2ccc(cc2Cl)[C@H]1O [VANCOMYCIN]	–	–	> 32 µg/mL	–	2 µg/mL (≈ 1.38 µM)	> 32 µg/mL	–	–	–
CO/C(S)=N/NC[C@H]1CN(c2ccc(OCCN3CCOCC3)c(F)c2)C(=O)O1	4 µg/mL (≈ 9.34 µM)	–	2 µg/mL (≈ 4.67 µM)	4 µg/mL (≈ 9.34 µM)	2 µg/mL (≈ 4.67 µM)	4 µg/mL (≈ 9.34 µM)	–	2 µg/mL (≈ 4.67 µM)	–
